Experimental data published in US7235539B2, “6-Hydroxyequilenins as estrogenic agents” (Wyeth, priority 2002, dated 2007).

Legend:
human ERα = biological target: T1, human ERα (Homo sapiens, UniProt P03372); test: Radioligand binding competition with [3H]-17β-estradiol, ERα; settings: human ERα ligand binding domain extract, read-out: ER-α IC50
T1 construct: amino acids M250–V595 of human ERα; His tag (N); made in house; host or cells: E. coli BL21(DE3), clarified lysate
T1 sequence (P03372 250-595): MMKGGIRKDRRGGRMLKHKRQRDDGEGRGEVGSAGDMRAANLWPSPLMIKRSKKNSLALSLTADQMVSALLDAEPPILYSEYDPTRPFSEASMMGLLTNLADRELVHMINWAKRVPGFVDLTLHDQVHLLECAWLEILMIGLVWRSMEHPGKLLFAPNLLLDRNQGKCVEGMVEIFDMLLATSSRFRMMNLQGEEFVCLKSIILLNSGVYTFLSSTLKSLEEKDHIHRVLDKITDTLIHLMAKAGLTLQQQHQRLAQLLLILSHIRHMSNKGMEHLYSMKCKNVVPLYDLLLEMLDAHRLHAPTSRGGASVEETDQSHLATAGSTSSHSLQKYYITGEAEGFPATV

human ERβ = biological target: T2, human ERβ (Homo sapiens, UniProt Q92731); test: Radioligand binding competition with [3H]-17β-estradiol, ERβ; settings: human ERβ ligand binding domain extract, read-out: ER-β IC50
T2 construct: M214–Q530 of human ERβ; Flag (C); made in house; host or cells: E. coli BL21(DE3), clarified lysate

[1] = system: metallothionein-II mRNA in Saos-2 cells (via ERβ); test: Regulation of metallothionein II mRNA in Saos-2 cells; format: cell-based
Description: Estrogens acting through ERβ, but not ERα can upregulate metallothionein II mRNA levels in Saos-2 cells as described by Harris [Endocrinology 142: 645–652 (2001)]. Results from this test procedure can be combined with results from the test procedure described below (ERE reporter test procedure) to generate a selectivity profile for compounds of this invention (see also WO 00/37681).

T2 sequence (Q92731 214-530): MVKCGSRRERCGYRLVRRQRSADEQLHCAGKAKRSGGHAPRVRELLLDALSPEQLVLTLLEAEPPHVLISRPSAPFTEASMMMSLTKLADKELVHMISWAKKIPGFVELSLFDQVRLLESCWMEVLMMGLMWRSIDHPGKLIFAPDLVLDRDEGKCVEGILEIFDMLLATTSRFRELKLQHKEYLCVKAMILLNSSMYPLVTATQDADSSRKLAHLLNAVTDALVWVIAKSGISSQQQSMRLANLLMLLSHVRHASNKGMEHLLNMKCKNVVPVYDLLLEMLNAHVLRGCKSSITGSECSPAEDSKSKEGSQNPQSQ

For CC12CCc3c(cc(O)c4cc(O)ccc34)C1CCC2=O (stereo not drawn) [Compound 1, 6-Hydroxyequilenin], the IC50 (human ERα) was 2180 nM, the IC50 (human ERβ) was 123 nM and the “Fold upregulation of metallothionein-II mRNA” value [1] was 11.
For CC12CCc3c(cc(O)c4cc(O)ccc34)C1CC[C@@H]2O (stereo partly drawn) [Compound 5, 6-Hydroxy-3,17β-dihydroequilenin], the IC50 (human ERα) was 238 nM, the IC50 (human ERβ) was 16 nM and the “Fold upregulation of metallothionein-II mRNA” value [1] was 11.
